ChEMBL document CHEMBL5338758, “Design, Synthesis, and Bioevaluation of Novel MyD88 Inhibitor c17 against Acute Lung Injury Derived from the Virtual Screen” (J Med Chem, 2023)
Calls of active or inactive are those of the source. The calls are words filed in the database; no cut-off is given here.

Columns and labels:
[1] = target: Myeloid differentiation primary response protein MyD88 (Homo sapiens, UniProt Q99836); assay: Binding affinity to human MyD88 TIR domain assessed as equilibrium dissociation constant by SPR analysis
Sequence of Myeloid differentiation primary response protein MyD88 (Q99836 whole entry, the tested form may be a part): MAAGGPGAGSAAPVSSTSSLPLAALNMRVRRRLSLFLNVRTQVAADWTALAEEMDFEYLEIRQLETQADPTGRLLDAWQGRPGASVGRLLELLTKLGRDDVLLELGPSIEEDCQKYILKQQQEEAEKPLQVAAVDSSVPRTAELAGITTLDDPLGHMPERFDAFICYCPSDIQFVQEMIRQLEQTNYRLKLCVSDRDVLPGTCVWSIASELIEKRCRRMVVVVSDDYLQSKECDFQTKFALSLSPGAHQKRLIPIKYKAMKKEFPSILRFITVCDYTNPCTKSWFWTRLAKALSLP

J774.A1 [2] = assay: Anti-inflammatory activity in mouse J774.A1 cells assessed as inhibition of LPS-induced IL-6 production at 10 uM pre-stimulated with LPS for 24 hrs followed by compound addition and measured after 0.5 hrs by ELISA analysis relative to control; type: functional
J774.A1 [3] = assay: Anti-inflammatory activity in mouse J774.A1 cells assessed as inhibition of LPS-induced IL-6 production pre-stimulated with LPS for 24 hrs followed by compound addition and measured after 0.5 hrs by ELISA analysis; type: functional, cell-based
J774.A1 [4] = assay: Cytotoxicity against mouse J774.A1 cells assessed as reduction in cell survival incubated for 24 hrs by MTT assay; type: toxicity, cell-based; conditions: j774.a1, 24 h
THP-1 = assay: Anti-inflammatory activity in human THP-1 cells assessed as inhibition of LPS-stimulated IL-6 release at 1.25 to 20 uM by ELISA analysis; type: functional, cell-based; conditions: dose 1.25-20 µM
[5] = target: TLR4-MyD88 (Mus musculus) (UniProt Q9QUK6+P22366); assay: Inhibition of MyD88/TLR4 interaction in LPS-stimulated mouse J774.A1 cells at 40 to 80 uM preincubated with compound for 2 hrs followed by LPS stimulation by co-immunoprecipitation analysis; type: cell-based; conditions: dose 40-80 µM
Sequence of TLR4-MyD88 (Mus musculus) (P22366 whole entry, looked up): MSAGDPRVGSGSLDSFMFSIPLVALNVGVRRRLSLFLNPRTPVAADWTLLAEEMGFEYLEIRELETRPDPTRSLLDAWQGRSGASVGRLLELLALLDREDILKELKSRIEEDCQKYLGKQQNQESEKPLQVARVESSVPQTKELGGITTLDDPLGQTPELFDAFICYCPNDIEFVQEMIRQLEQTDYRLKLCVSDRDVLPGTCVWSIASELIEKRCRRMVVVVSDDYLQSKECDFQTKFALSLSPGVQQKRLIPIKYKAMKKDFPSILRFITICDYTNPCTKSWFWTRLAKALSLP
Sequence of TLR4-MyD88 (Mus musculus) (Q9QUK6 whole entry, looked up): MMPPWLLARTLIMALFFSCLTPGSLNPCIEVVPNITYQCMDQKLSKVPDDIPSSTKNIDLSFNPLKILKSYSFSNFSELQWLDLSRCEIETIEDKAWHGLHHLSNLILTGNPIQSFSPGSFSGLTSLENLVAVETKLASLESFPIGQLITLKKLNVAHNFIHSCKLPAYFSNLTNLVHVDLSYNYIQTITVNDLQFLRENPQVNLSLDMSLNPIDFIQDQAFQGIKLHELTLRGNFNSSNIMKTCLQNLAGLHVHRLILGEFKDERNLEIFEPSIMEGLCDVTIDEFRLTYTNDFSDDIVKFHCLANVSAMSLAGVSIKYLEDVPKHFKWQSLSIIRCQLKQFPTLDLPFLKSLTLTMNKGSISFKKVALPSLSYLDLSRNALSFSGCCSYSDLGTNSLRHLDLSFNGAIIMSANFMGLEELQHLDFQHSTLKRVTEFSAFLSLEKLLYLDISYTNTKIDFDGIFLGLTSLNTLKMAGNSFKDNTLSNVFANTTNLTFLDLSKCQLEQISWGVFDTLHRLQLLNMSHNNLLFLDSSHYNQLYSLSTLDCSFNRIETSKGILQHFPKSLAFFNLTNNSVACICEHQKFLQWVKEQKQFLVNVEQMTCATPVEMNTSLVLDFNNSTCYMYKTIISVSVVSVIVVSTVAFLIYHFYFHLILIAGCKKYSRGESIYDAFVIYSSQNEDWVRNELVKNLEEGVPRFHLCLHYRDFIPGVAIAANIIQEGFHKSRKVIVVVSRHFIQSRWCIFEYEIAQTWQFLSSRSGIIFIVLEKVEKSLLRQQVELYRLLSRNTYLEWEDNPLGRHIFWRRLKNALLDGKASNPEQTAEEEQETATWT

J774.A1 [6] = assay: Inhibition of NF-kappaB pathway in LPS-induced mouse J774.A1 cells assessed as […] in IkappaB-alpha phosphorylation at 10 to 40 uM preincubated with compound for 2 hrs followed by LPS-stimulation and measured after 15 mins by Western blot analysis; type: cell-based; conditions: dose 10-40 µM, time 135.0 min
J774.A1 [7] = assay: Inhibition of NF-kappaB pathway in LPS-induced mouse J774.A1 cells assessed as reduction in p65 nuclear reactivity preincubated with compound for 2 hrs followed by LPS-stimulation and measured after 15 mins by DAPI staining based immunofluorescence analysis; type: cell-based; conditions: time 135.0 min
[8] = Stability of compound in rat serum at 25 degreeC measured every 2 hrs for 24 hrs by HPLC analysis; type: ADME, cell-free
[9] = Tmax in Sprague-Dawley rat at 1 mg/kg, iv measured at 5 to 1440 min by LC-MS/MS analysis; type: ADME, organism-based; conditions: in vivo, time 5-1440 min
[10] = AUC (0 to t) in Sprague-Dawley rat at 1 mg/kg, iv measured at 5 to 1440 min by LC-MS/MS analysis; type: ADME, organism-based; design: time upper 1440 min, time lower 5 min, dose 1 mg/kg, route iv; conditions: in vivo
[11] = Tmax in Sprague-Dawley rat at 10 mg/kg, po measured at 15 to 1440 min by LC-MS/MS analysis; type: ADME, organism-based; conditions: in vivo, time 15-1440 min
[12] = Cmax in Sprague-Dawley rat at 10 mg/kg, po measured at 15 to 1440 min by LC-MS/MS analysis; type: ADME, organism-based; design: time lower 15 min, dose 10 mg/kg, time upper 1440 min, route po; conditions: in vivo
[13] = AUC (0 to t) in Sprague-Dawley rat at 10 mg/kg, po measured at 15 to 1440 min by LC-MS/MS analysis; type: ADME, organism-based; design: time 15-1440 min, dose 10 mg/kg, route po; conditions: in vivo
[14] = Drug distribution in Sprague-Dawley rat heart at 1 mg/kg, iv measured after 0.5 hrs by LC-MS/MS analysis; type: ADME, organism-based; conditions: read-out: Drug uptake
[15] = Drug distribution in Sprague-Dawley rat kidney at 1 mg/kg, iv measured after 0.5 hrs by LC-MS/MS analysis; type: ADME, organism-based; conditions: read-out: Drug uptake
[16] = Drug distribution in Sprague-Dawley rat liver at 1 mg/kg, iv measured after 0.5 hrs by LC-MS/MS analysis; type: ADME, organism-based; conditions: read-out: Drug uptake
[17] = Drug distribution in Sprague-Dawley rat kidney at 1 mg/kg, iv measured after 2 hrs by LC-MS/MS analysis; type: ADME, organism-based; conditions: read-out: Drug uptake
[18] = Drug distribution in Sprague-Dawley rat brain at 1 mg/kg, iv measured after 2 hrs by LC-MS/MS analysis; type: ADME, organism-based; conditions: read-out: Drug uptake
[19] = Drug distribution in Sprague-Dawley rat lung at 1 mg/kg, iv measured after 2 hrs by LC-MS/MS analysis; type: ADME, organism-based; conditions: read-out: Drug uptake
[20] = Drug distribution in Sprague-Dawley rat kidney at 1 mg/kg, iv measured after 4 hrs by LC-MS/MS analysis; type: ADME, organism-based; conditions: read-out: Drug uptake
[21] = Drug distribution in Sprague-Dawley rat lung at 1 mg/kg, iv measured after 4 hrs by LC-MS/MS analysis; type: ADME, organism-based; conditions: read-out: Drug uptake
[22] = Drug distribution in Sprague-Dawley rat spleen at 1 mg/kg, iv measured after 4 hrs by LC-MS/MS analysis; type: ADME, organism-based; conditions: read-out: Drug uptake
[23] = Drug distribution in Sprague-Dawley rat lung at 10 mg/kg, po measured after 1 hrs by LC-MS/MS analysis; type: ADME, organism-based; conditions: read-out: Drug uptake
[24] = Drug distribution in Sprague-Dawley rat kidney at 10 mg/kg, po measured after 8 hrs by LC-MS/MS analysis; type: ADME, organism-based; conditions: read-out: Drug uptake
[25] = Drug distribution in Sprague-Dawley rat brain at 10 mg/kg, po measured after 8 hrs by LC-MS/MS analysis; type: ADME, organism-based; conditions: read-out: Drug uptake
Mus musculus [26] = assay: Anti-inflammatory activity against LPS-induced […] mouse model of […] assessed as alleviation of tissue destruction in lung at 20 mg/kg, po pre-treated with compound for 30 mins followed by LPS stimulation and measured after 6 hrs by H&E staining based histopathological analysis; type: functional, organism-based; conditions: time 6.5 hrs
Mus musculus [27] = assay: Anti-inflammatory activity against LPS-induced […] mouse model of […] assessed as alleviation of interstitial edema in lung at 20 mg/kg, po pre-treated with compound for 30 mins followed by LPS stimulation and measured after 6 hrs by H&E staining based histopathological analysis; type: functional, organism-based; conditions: time 6.5 hrs
Mus musculus [28] = assay: Anti-inflammatory activity against LPS-induced […] mouse model of […] assessed as alleviation of lung edema by measuring decrease in wet/dry weight ratio at 20 mg/kg, po pre-treated with compound for 30 mins followed by LPS stimulation and measured after 6 hrs; type: functional, organism-based; conditions: time 6.5 hrs
Mus musculus [29] = assay: Anti-inflammatory activity against LPS-induced […] mouse model of […] assessed as decrease in TNF-alpha level in serum at 20 mg/kg, po pre-treated with compound for 30 mins followed by LPS stimulation and measured after 6 hrs; type: functional, organism-based; conditions: time 6.5 hrs
Mus musculus [30] = assay: Anti-inflammatory activity against LPS-induced […] mouse model of […] assessed as decrease in IL-6 mRNA level in lung at 20 mg/kg, po pre-treated with compound for 30 mins followed by LPS stimulation and measured after 6 hrs by qRT-PCR analysis; type: functional, organism-based; conditions: time 6.5 hrs
Mus musculus [31] = assay: Anti-inflammatory activity against LPS-induced […] mouse model of […] assessed as decrease in TNF-alpha mRNA level in lung at 20 mg/kg, po pre-treated with compound for 30 mins followed by LPS stimulation and measured after 6 hrs by qRT-PCR analysis; type: functional, organism-based; conditions: time 6.5 hrs

COc1ccc(NS(=O)(=O)c2ccc(N3CCN(Cc4cccc([N+](=O)[O-])c4)CC3)c([N+](=O)[O-])c2)cn1
Kd [1]: 53 µM
inhibition at 10 µM (J774.A1 [2]): 69%
IC50 (J774.A1 [3]): 2.17 µM
Activity (J774.A1 [4]): Non-Toxic
inhibition (THP-1): Active
inhibition [5]: Active
inhibition (J774.A1 [6]): Active
inhibition (J774.A1 [7]): Active
Stability [8]: Stable
Tmax [9]: 6 min
AUCt [10]: 4795 ng·h/mL
Tmax [11]: 48 min
Cmax [12]: 2210 ng/mL
AUCt [13]: 68163 ng·h/mL
concentration at 0.5 h [14]: 52.1 ng/g
concentration at 0.5 h [15]: 52.5 ng/g
concentration at 0.5 h [16]: 166 ng/g
concentration at 2 h [17]: 143 ng/g
concentration at 2 h [18]: 0.66 ng/g
concentration at 2 h [19]: 206 ng/g
concentration at 4 h [20]: 250 ng/g
concentration at 4 h [21]: 502 ng/g
concentration at 4 h [22]: 113 ng/g
concentration at 1 h [23]: 41.6 ng/g
concentration at 8 h [24]: 656 ng/g
concentration at 8 h [25]: 39.9 ng/g
Activity (Mus musculus [26]): Active
Activity (Mus musculus [27]): Active
Activity (Mus musculus [28]): Active
Activity (Mus musculus [29]): Active
Activity (Mus musculus [30]): Active
Activity (Mus musculus [31]): Active
